This is an account of results in patent publication US10966996B2, “Glechoma longitube extract, preparation method for same, and use thereof in sugar reduction, weight loss, and lipid reduction” (SHANGHAI INSTITUTE OF MATERIA MEDICA CHINESE ACADEMY OF …, priority 2014, dated 2021).

Format in all cases: biochemical
For assay [1], the target named is T1, porcine pancrelipase (Sus scrofa, UniProt P00591).
T1 construct: purchased Sigma
T1 sequence (P00591 1-450): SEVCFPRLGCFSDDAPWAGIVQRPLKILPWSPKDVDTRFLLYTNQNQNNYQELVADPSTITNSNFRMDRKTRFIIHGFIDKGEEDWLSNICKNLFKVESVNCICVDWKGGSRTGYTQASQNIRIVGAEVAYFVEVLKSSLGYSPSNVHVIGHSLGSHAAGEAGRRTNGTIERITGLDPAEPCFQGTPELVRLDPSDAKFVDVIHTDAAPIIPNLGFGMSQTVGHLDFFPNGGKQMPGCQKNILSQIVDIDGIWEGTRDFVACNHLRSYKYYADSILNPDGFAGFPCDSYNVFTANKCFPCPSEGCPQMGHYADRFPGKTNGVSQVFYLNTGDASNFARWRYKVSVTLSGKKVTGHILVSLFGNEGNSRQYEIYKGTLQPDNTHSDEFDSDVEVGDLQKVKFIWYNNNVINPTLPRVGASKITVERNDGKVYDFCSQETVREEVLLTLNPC
Description: inhibitory activity against pancrelipase (p-Nitrophenyl acetate substrate). Particulars: read-out: Inhibition rate % (50 μM) against pancrelipase. From the text:
OD compound, OD blank, and OD negative control represented the fluorescence values from a compound well, a blank well, and a negative control well free of DGAT1 enzyme, and the concentrations of the compounds when the enzyme activity inhibition rate (%) reached 50% were set as IC50 value; (3) inhibitory activity of the individual compounds separated from the extract of Glechoma longituba (Nakai) Kupr., LQC-H-1, against pancrelipase: substrate p-Nitrophenyl acetate (Sigma, USA) was formulated to 1.35 mM with phosphate buffer (25 mM, pH 6.8); porcine pancrelipase (Sigma) was formulated to 10 mg/ml with phosphate buffer; brominated eneyne compounds were formulated to solutions of different concentrations with phosphate buffer. Then, 50 μl of 1.35 mM p-Nitrophenyl acetate (Sigma, USA) solution and 10 μl of test compounds of different concentrations were sequentially added into a 96-well plate and pre-incubated at 37° C. for 5 mins. Finally, 50 μl of 10 mg/ml pancrelipase (EC 3.1.1.3, Sigma, USA) was added and mixed. The reaction proceeded at 37° C. for further 20 mins Absorbance of each well was measured at 492 nm. The inhibition rates (%) of the test samples against pancrelipase were calculated based on the absorbance at 492 nm. The concentrations of the compounds when then enzyme activity inhibition rate (%) reached 50% was set as IC50 value. The inhibition rate (%) could be calculated according to the following formula: Inhibition rate (%)=[(A−B)−(C−D)]/(A−B)×100
In the above formula, A, B, C, and D represented the absorbance of a blank well after the reaction, the absorbance of a blank well prior to the reaction, the absorbance of a sample well after the reaction, and the absorbance of a sample well prior to the reaction.

Assay [2] addresses T2, DDP4 enzyme (Homo sapiens, UniProt P27487).
T2 construct: cell lysis solution of human colon cancer cell line Caco-2 as DDP4 enzyme source; endogenous in cells; host or cells: Caco-2 (human colon cancer cell line) lysate
As to the kind of experiment: in vitro inhibiting activity against DDP4 enzyme (Caco-2 cell lysis solution, H-Gly-Pro-AMC substrate). Particulars: for inhibition rate against DDP4: 100 μM; for inhibition at 100 µM: read-out: inhibition rate against DDP4. The protocol: Experimental method: (1) determination of inhibiting activity of Compound I and Compound II against DDP4 enzyme in vitro: cell lysis solution of human colon cancer cell line Caco-2 as DDP4 enzyme source (Thomas, L., et al, 2008, JPET). In a drug screening system of 96-well plate, 100 μL/well, the final concentration of H-Gly-Pro-AMC substrate (AnaSpec) was 244 μM, in which different concentrations of test compounds were added for incubation at 37° C. for 30 mins Fluorescence signals were detected at excitation wavelength 380 nm/emission wavelengths 460 nm Inhibition rates (%) on the enzyme of test samples against DDP4 were calculated according to fluorescence absorption value obtained by detection. The inhibition rate (%) is calculated according to the following formula: Inhibition rate (%)=(RFU blank−RFU compound)/(RFU blank−RFU negative control)*100%
RFU compound, RFU blank, and RFU negative control represent the difference of fluorescence values at 30 mins and at 0 min from a compound well, a blank well, and a negative control well free of enzyme; (2) effect of Compound I and Compound II for acute glucose tolerance in mice: the OGTT experimental method was the same to Example 5, the mice were divided into control group; calibration group; Compound I lower dose group (100 mg/kg); Compound I higher dose group (200 mg/kg); Compound II lower dose group (100 mg/kg); Compound II higher dose group (200 mg/kg); and positive drug group (Sitagliptin 10 mg/kg, Merck Company, USA).

Assay [3] concerns the target T3, glucose oxidase (GOX) (Homo sapiens, UniProt Q9UJM8).
T3 sequence (Q9UJM8 1-370): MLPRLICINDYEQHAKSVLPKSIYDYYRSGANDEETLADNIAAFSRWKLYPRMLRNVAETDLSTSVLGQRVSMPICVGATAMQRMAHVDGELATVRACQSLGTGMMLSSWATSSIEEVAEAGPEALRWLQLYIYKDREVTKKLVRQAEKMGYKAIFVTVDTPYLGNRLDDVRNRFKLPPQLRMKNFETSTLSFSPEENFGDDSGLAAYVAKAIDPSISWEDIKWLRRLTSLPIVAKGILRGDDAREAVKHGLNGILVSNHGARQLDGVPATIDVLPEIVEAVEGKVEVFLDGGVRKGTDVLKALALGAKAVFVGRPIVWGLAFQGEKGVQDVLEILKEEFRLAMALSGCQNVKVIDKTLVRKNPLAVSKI
Description: inhibitory activity against glucose oxidase (GOX), enzyme coupling method with glycolic acid substrate. On the set-up: Vmax: unit not given here. Particulars: for inhibition at 0.1 µM / inhibition at 0.3 µM / inhibition at 1 µM / inhibition at 3 µM / inhibition at 10 µM / inhibition at 30 µM / inhibition at 100 µM: read-out: Inhibition rate; for IC50: fitted by Graphpad Prism 5.0, tested 100 μM-0.1 μM. The protocol:
Mechanism of experiment: enzyme coupling method utilizes peroxidase (POD) and substrates thereof to react with generated H2O2 to produce colored products so as to determine the catalytic reaction rate of glucose oxidase. POD catalyzes H2O2 to react with phenol and 4-amino antipyrine to produce brown-red quinone substances.
Experimental method: reagents were added according to the table below; the reaction was immediately initiated upon the final addition of substrate glycolic acid; the kinetic course of the reaction was detected by microplate reader; the enzyme activity was represented by Vmax, maximum reaction velocity.
The measurement results were fitted by Graphpad Prism 5.0 to calculate IC50 values.

T2 sequence (P27487 whole entry): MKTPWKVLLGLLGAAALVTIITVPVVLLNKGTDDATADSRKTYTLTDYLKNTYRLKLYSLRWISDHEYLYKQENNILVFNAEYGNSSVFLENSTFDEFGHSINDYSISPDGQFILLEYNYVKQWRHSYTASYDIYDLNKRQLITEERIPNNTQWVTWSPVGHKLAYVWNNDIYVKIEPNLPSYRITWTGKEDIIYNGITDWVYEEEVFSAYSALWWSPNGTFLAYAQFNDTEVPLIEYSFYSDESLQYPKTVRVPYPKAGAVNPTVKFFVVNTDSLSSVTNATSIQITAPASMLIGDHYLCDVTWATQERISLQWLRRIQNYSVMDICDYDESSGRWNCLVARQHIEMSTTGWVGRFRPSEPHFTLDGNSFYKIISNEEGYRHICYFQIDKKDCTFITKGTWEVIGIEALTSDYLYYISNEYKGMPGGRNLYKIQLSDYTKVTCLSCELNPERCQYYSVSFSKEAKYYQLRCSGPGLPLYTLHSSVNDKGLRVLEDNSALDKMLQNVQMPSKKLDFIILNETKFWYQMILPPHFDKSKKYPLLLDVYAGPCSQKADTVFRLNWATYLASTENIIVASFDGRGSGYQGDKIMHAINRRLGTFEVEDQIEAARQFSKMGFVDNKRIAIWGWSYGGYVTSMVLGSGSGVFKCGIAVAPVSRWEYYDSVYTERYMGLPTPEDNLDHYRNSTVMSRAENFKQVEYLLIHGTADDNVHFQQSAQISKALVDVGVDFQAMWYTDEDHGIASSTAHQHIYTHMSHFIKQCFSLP

For the molecule `O=C(O)C1O[C@@H](OC2C(O)[C@H](O)C(C(=O)O)O[C@H]2Oc2cc(O)c3c(=O)cc(-c4ccc(O)c(O)c4)oc3c2)C(O)C(O)[C@@H]1O` (stereo partly drawn) [Compound I, luteolin-7-O-[β-glucuronosyl(1→2)β-glucuronic acid]], in assay [1], the inhibition at 50 µM was determined as 41.9%. Moreover, in assay [2], the “inhibition rate against DDP4” value amounted to 40.8% and the inhibition at 100 µM turned out to be 40.8 ± 3.26%. In addition, in assay [3] (0.1 μM), the Vmax came to 35.13 ± 0.22 and the inhibition at 0.1 µM was 1.54 ± 0.62%. In addition, in assay [3] (0.3 μM), the Vmax is given as 35.47 ± 0.98 and the inhibition at 0.3 µM came out at 0.6 ± 2.74%. Also, in assay [3] (1 μM), the Vmax is given as 35.36 ± 0.65 and the inhibition at 1 µM was 0.9 ± 1.82%. In assay [3] (3 μM), the Vmax was found to be 35.39 ± 0.63 and the inhibition at 3 µM came out at 0.83 ± 1.77%. Besides, in assay [3] (10 μM), the Vmax was determined as 35.08 ± 0.21 and the inhibition at 10 µM worked out at 1.69 ± 0.58%. In assay [3] (30 μM), the Vmax came out at 34.04 ± 0.65 and the inhibition at 30 µM came out at 4.6 ± 1.82%. Moreover, in assay [3] (100 μM), the Vmax came to 29.34 ± 0.10 and the inhibition at 100 µM stood at 17.8 ± 0.29%. Further, half-maximal inhibition in assay [3] (IC50) was put at 500 µM.
In the case of `O=C(O)C1O[C@@H](OC2C(O)[C@H](O)C(C(=O)O)O[C@H]2Oc2cc(O)c3c(=O)cc(-c4ccc(O)cc4)oc3c2)C(O)C(O)[C@@H]1O` (stereo partly drawn) [Compound II, apigenin-7-O-[β-glucuronosyl(1→2)β-glucuronic acid]], in assay [1], the inhibition at 50 µM was found to be 41.6%. For the same molecule, in assay [2], the “inhibition rate against DDP4” value was found to be 34.1% and the inhibition at 100 µM worked out at 34.1 ± 3.91%. Also, in assay [3] (0.1 μM), the Vmax is listed as 36.05 ± 0.85 and the inhibition at 0.1 µM is -1.04 ± 2.39%. In addition, in assay [3] (0.3 μM), the Vmax is given as 36.35 ± 0.84 and the inhibition at 0.3 µM is -1.88 ± 2.35%. Also, in assay [3] (1 μM), the Vmax was 35.42 ± 0.43 and the inhibition at 1 µM worked out at 0.74 ± 1.19%. In assay [3] (3 μM), the Vmax turned out to be 35.85 ± 1.03 and the inhibition at 3 µM is -0.48 ± 2.9%. In assay [3] (10 μM), the Vmax was found to be 35.63 ± 1.00 and the inhibition at 10 µM was determined as 0.15 ± 2.81%. For the same molecule, in assay [3] (30 μM), the Vmax was 33.88 ± 0.98 and the inhibition at 30 µM is 5.05 ± 2.76%. For the same molecule, in assay [3] (100 μM), the Vmax came out at 29.13 ± 0.80 and the inhibition at 100 µM was 18.4 ± 2.23%. In addition, the midpoint of inhibition in assay [3], the IC50, lay at 400 µM.

Usually inhibition stands for the relative decrease from the control value, in per cent. Broadly, the IC50 is the concentration that gives 50% inhibition.
